Read-outs that look alike come from different tables or passages of the source.
Biological target: T1, Recombinant human TPH1 (MBP tagged) (Homo sapiens, UniProt P17752)
T1 construct: cloning full length human TPH1 cDNA in to a bacterial pMAL-c5E expression vector; made in house; host or cells: E. coli BL21 (DE3)
T1 sequence (P17752 1-444): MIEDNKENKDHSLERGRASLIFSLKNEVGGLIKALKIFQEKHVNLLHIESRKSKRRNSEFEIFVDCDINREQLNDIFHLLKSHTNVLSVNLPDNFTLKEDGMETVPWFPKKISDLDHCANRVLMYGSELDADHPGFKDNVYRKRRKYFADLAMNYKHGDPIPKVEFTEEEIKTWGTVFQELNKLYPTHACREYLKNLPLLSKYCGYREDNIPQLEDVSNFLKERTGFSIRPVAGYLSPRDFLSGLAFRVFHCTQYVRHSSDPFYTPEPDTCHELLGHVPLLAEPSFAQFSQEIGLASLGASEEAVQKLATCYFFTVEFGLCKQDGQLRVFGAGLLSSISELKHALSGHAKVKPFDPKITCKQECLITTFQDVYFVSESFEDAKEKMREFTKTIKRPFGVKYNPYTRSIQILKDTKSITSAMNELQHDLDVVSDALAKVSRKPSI
Assay: TPH1 in vitro inhibition assay (kinetic fluorescence)
Type: biochemical
Outline: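 Final mix: 15 nM MBP-TPH1, 30 μM Trp, 36 μM 6-methyltetrahydropterin, 25 μM ferrous ammonium sulfate, 50 mM MES pH 7.1, 1% DMSO, room temperature.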

[1] = read-out: TPH1 Range (TPH1 inhibition IC50)
[2] = TPH1 Range (TPH1 inhibition IC50)

SMILES | IC50 [1] | IC50 [2]
Cc1ccn(-c2cc(-c3cc(Cl)cc(Cl)c3)ccc2[C@@H](Oc2cc(N3CCC4(CC3)CN[C@H](C(=O)O)C4)nc(N)n2)C(F)(F)F)n1 [Example 1bi, (S)-8-(2-amino-6-((R)-1-(3′,5′-dichloro-3-(3-methyl-1H-pyrazol-1-yl)-[1,1′-biphenyl]-4-yl)-2,2,2-trifluoroethoxy)pyrimidin-4-yl)-2,8-diazaspiro[4.5]decane-3-carboxylic acid] | < 0.05 µM | –
Cc1ccn(-c2cc(-c3cccc(C(=O)O)c3)ccc2[C@@H](Oc2cc(N3CCC4(CC3)CN[C@H](C(=O)O)C4)nc(N)n2)C(F)(F)F)n1 [Example 1d, (S)-8-(2-amino-6-((R)-1-(3′-carboxy-3-(3-methyl-1H-pyrazol-1-yl)-[1,1′-biphenyl]-4-yl)-2,2,2-trifluoroethoxy)pyrimidin-4-yl)-2,8-diazaspiro[4.5]decane-3-carboxylic acid] | < 0.05 µM | –
CCOC(=O)c1ccc(-n2ccc(C)n2)c([C@@H](Oc2cc(N3CCC4(CC3)CN[C@H](C(=O)O)C4)nc(N)n2)C(F)(F)F)c1 [Example 23, (S)-8-(2-Amino-6-((R)-1-(5-(ethoxycarbonyl)-2-(3-methyl-1H-pyrazol-1-yl)phenyl)-2,2,2-trifluoroethoxy)pyrimidin-4-yl)-2,8-diazaspiro[4.5]decane-3-carboxylic acid] | < 0.05 µM | –
Cc1ccn(-c2ccccc2[C@@H](Oc2ccnc(N3CCC4(CC3)CN[C@H](C(=O)O)C4)c2)C(F)(F)F)n1 [Example 44, (S)-8-(4-((R)-2,2,2-trifluoro-1-(2-(3-methyl-1H-pyrazol-1-yl)phenyl)ethoxy)pyridin-2-yl)-2,8-diazaspiro[4.5]decane-3-carboxylic acid] | 0.3 to 3 µM | –
CCCc1ccc(-c2cccc(S(C)(=O)=O)c2)c([C@@H](Oc2cc(N3CCC4(CC3)CN[C@H](C(=O)O)C4)nc(N)n2)C(F)(F)F)c1 [Example 49, (S)-8-(2-Amino-6-((R)-2,2,2-trifluoro-1-(3′-(methylsulfonyl)-4-propyl-[1,1′-biphenyl]-2-yl)ethoxy)pyrimidin-4-yl)-2,8-diazaspiro[4.5]decane-3-carboxylic acid] | < 0.05 µM | –
Cc1ccn(-c2cc(-c3ccc(OCC(C)C)cc3)ccc2[C@@H](Oc2cc(N3CCC4(CC3)CN[C@H](C(=O)O)C4)nc(N)n2)C(F)(F)F)n1 [Example 1cl, (S)-8-(2-amino-6-((R)-2,2,2-trifluoro-1-(4′-isobutoxy-3-(3-methyl-1H-pyrazol-1-yl)-[1,1′-biphenyl]-4-yl)ethoxy)pyrimidin-4-yl)-2,8-diazaspiro[4.5]decane-3-carboxylic acid] | < 0.05 µM | –
Cc1ccn(-c2cc(-c3ccc(F)c(C)c3)ccc2[C@@H](Oc2cc(N3CCC4(CC3)CN[C@H](C(=O)O)C4)nc(N)n2)C(F)(F)F)n1 [Example 1ba, (S)-8-(2-amino-6-((R)-2,2,2-trifluoro-1-(4′-fluoro-3′-methyl-3-(3-methyl-1H-pyrazol-1-yl)-[1,1′-biphenyl]-4-yl)ethoxy)pyrimidin-4-yl)-2,8-diazaspiro[4.5]decane-3-carboxylic acid] | < 0.05 µM | –
COc1ccc(-c2ccc([C@@H](Oc3cc(N4CCC5(CC4)CN[C@H](C(=O)O)C5)nc(N)n3)C(F)(F)F)c(-n3ccc(C)n3)c2)cc1 [Example 1bm, (S)-8-(2-amino-6-((R)-2,2,2-trifluoro-1-(4′-methoxy-3-(3-methyl-1H-pyrazol-1-yl)-[1,1′-biphenyl]-4-yl)ethoxy)pyrimidin-4-yl)-2,8-diazaspiro[4.5]decane-3-carboxylic acid] | – | < 0.05 µM
Cc1ccn(-c2cc(-c3ccc4cccnc4c3)ccc2[C@@H](Oc2cc(N3CCC4(CC3)CN[C@H](C(=O)O)C4)nc(N)n2)C(F)(F)F)n1 [Example 1z, (S)-8-(2-amino-6-((R)-2,2,2-trifluoro-1-(2-(3-methyl-1H-pyrazol-1-yl)-4-(quinolin-7-yl)phenyl)ethoxy)pyrimidin-4-yl)-2,8-diazaspiro[4.5]decane-3-carboxylic acid] | < 0.05 µM | –

The next lines start with the values.

IC50 [1] | IC50 [2] | SMILES
< 0.05 µM | – | Nc1nc(O[C@H](c2ccc(Cl)cc2-c2cc(Cl)cc(Cl)c2)C(F)(F)F)cc(N2CCC3(CC2)CN[C@H](C(=O)O)C3)n1 [Example 34bj, (S)-8-(2-amino-6-((R)-2,2,2-trifluoro-1-(3′,5,5′-trichloro-[1,1′-biphenyl]-2-yl)ethoxy)pyrimidin-4-yl)-2,8-diazaspiro[4.5]decane-3-carboxylic acid]
– | < 0.05 µM | Nc1nc(O[C@H](c2ccc(Cl)cc2-c2cccc(F)c2)C(F)(F)F)cc(N2CCC3(CC2)CN[C@H](C(=O)O)C3)n1 [Example 34as, (S)-8-(2-amino-6-((R)-1-(5-chloro-3′-fluoro-[1,1′-biphenyl]-2-yl)-2,2,2-trifluoroethoxy)pyrimidin-4-yl)-2,8-diazaspiro[4.5]decane-3-carboxylic acid]
– | 0.05 to 0.3 µM | Nc1nc(O[C@H](c2ccc(Cl)cc2-c2cccnc2)C(F)(F)F)cc(N2CCC3(CC2)CN[C@H](C(=O)O)C3)n1 [Example 34bo, (S)-8-(2-amino-6-((R)-1-(4-chloro-2-(pyridin-3-yl)phenyl)-2,2,2-trifluoroethoxy)pyrimidin-4-yl)-2,8-diazaspiro[4.5]decane-3-carboxylic acid]
< 0.05 µM | – | Nc1nc(O[C@H](c2ccc(Cl)cc2-c2ccc(F)c(Cl)c2)C(F)(F)F)cc(N2CCC3(CC2)CN[C@H](C(=O)O)C3)n1 [Example 34av, (S)-8-(2-amino-6-((R)-1-(3′,5-dichloro-4′-fluoro-[1,1′-biphenyl]-2-yl)-2,2,2-trifluoroethoxy)pyrimidin-4-yl)-2,8-diazaspiro[4.5]decane-3-carboxylic acid]
< 0.05 µM | – | Nc1nc(O[C@H](c2ccccc2-c2cccc(Cl)c2)C(F)(F)F)cc(N2CCC3(CC2)CN[C@H](C(=O)O)C3)n1 [Example 42a, (S)-8-(2-amino-6-((R)-1-(3′-chloro-[1,1′-biphenyl]-2-yl)-2,2,2-trifluoroethoxy)pyrimidin-4-yl)-2,8-diazaspiro[4.5]decane-3-carboxylic acid]
< 0.05 µM | – | CC(C)c1cccc(-c2cc(Cl)ccc2[C@@H](Oc2cc(N3CCC4(CC3)CN[C@H](C(=O)O)C4)nc(N)n2)C(F)(F)F)c1 [Example 34bi, (S)-8-(2-amino-6-((R)-1-(5-chloro-3′-isopropyl-[1,1′-biphenyl]-2-yl)-2,2,2-trifluoroethoxy)pyrimidin-4-yl)-2,8-diazaspiro[4.5]decane-3-carboxylic acid]
< 0.05 µM | – | Cc1ccn(-c2ccc(-c3ccc(C)c(CO)c3)cc2[C@@H](Oc2cc(N3CCC4(CC3)CN[C@H](C(=O)O)C4)nc(N)n2)C(F)(F)F)n1 [Example 19m, (S)-8-(2-amino-6-((R)-2,2,2-trifluoro-1-(3′-(hydroxymethyl)-4′-methyl-4-(3-methyl-1H-pyrazol-1-yl)-[1,1′-biphenyl]-3-yl)ethoxy)pyrimidin-4-yl)-2,8-diazaspiro[4.5]decane-3-carboxylic acid]
0.05 to 0.3 µM | – | Cc1cn(C)c2ccc(-c3ccc([C@@H](Oc4cc(N5CCC6(CC5)CN[C@H](C(=O)O)C6)nc(N)n4)C(F)(F)F)cc3)cc12 [Example 55y, (S)-8-(2-amino-6-((R)-1-(4-(1,3-dimethyl-1H-indol-5-yl)phenyl)-2,2,2-trifluoroethoxy)pyrimidin-4-yl)-2,8-diazaspiro[4.5]decane-3-carboxylic acid]

— US11759462B2, “Spirocyclic compounds as tryptophan hydroxylase inhibitors” (priority 2013, dated 2023)
